# Reference: US5980914A (priority 1997, dated 1999)
# Entries after “also recorded” stand apart in the source; their conditions may differ.
# What was measured:
# [1] = monkeys, microautoradiographic techniques; terminal axodendritic boutons of the mossy fibres; cited from earlier work
# [2] = system: vitamin B12 ([^57 Co]-cyanocobalamine) metabolism; test: Influence of clioquinol on vitamin B12 in vivo: [57Co]-cyanocobalamine radioactivity in dissected tissues; set-up: species or system mice
# Experimental: After three days, all of the mice were injected with [^57 Co]-cyanocobalamine. After two days, the animals were sacrificed, and the brain, liver and kidney were dissected and counted in a gamma-counter as thousand cpm/g tissue (wet weight)±SEM. The radioactivities in each of the groups are stated in Table 1 below: […]
# [3] = system: neurotoxic injury; settings: in vivo; cited from earlier work
# [4] = mass spectrophotometry; cited from earlier work
# [5] = cited from earlier work
# [6] = mass spectrophotometry; cited from earlier work; remark: listed apart in the source
# [7] = in vivo; cited from earlier work
# [8] = mass spectrophotometry; cited from earlier work; remark: listed apart in the source
# [9] = Solubility in water / aqueous solutions; type: physicochemical; settings: water / aqueous solutions for NMR testing
# Experimental: (§1) The mixture was analyzed by ^1 H NMR.
# (§2) Three different solutions were prepared and their ^1 H NMR spectra were recorded in a DRX 400 MHz spectrophotometer at 20° C. Solution a) contained free vitamin B12 (hydroxycobalamin) in a concentration of 2.6 mM.
# [10] = mass spectrophotometry; cited from earlier work; remark: listed apart in the source
# [11] = system: Heliocobacter pylori; settings: in vivo; cited from earlier work
# [12] = unconjugated clioquinol, injected intravenously; crosses the blood-brain-barrier; cited from earlier work
# [13] = mass spectrophotometry; cited from earlier work; remark: listed apart in the source
# [14] = 1H NMR interaction of vitamin B12 with clioquinol glucuronide; type: binding
# Experimental: FIG. 1 depicts the NMR spectra of three solutions. Solution a contained vitamin B12 (hydroxycobalamin), at a concentration of 2.6 mM.
# as §1, §2
SMILES,zinc chelates in the hippocampus [1],"radioactivity, Brain ([2]; brain, clioquinol 50 mg/kg/day, [57Co]-cyanocobalamine after three days, sacrificed after two days, ±SEM, control 9.4 ± 0.9)","amount of vitamin B12 trapped in the kidneys, in words ([2]; kidney, versus control)","radioactivity, Kidney ([2]; kidney, clioquinol 50 mg/kg/day, [57Co]-cyanocobalamine after three days, sacrificed after two days, ±SEM, control 895 ± 207)","radioactivity, Liver ([2]; liver, clioquinol 50 mg/kg/day, [57Co]-cyanocobalamine after three days, sacrificed after two days, ±SEM, control 97 ± 8)",effect in the treatment of neurotoxic injury [3],coordination number for Ni(II) [4],"concentration in areas of the brain such as the hippocampus, in words [5]",coordination number for Cu(II) [6],excretion [7],coordination number for Fe(III) [8],solubility in water [9],coordination number for Co(II) [10],effect in the treatment of Heliocobacter pylori [11],penetration into the nervous system [12],coordination number for Zn(II) [13],"shift of resonances in the mixture ([14]; aromatic region, benzimidazole moiety (vitamin B12), quinoline moiety (clioquinol glucuronide))","interaction between clioquinol glucuronide and vitamin B12 ([14]; buffered water pH 6.5, 20° C, 2.6 mM vitamin B12 + 10 mM clioquinol glucuronide)"
"Oc1c(I)cc(Cl)c2cccnc12 [Clioquinol, 5-chloro-7-iodo-8 hydroxyquinoline]",form zinc chelates in the hippocampus,8.4 ± 1.5 thousand cpm/g tissue (wet wei,decreased in the kidney; also recorded: A reduction in the amount of vitamin B12 trapped in the kidneys,252 ± 61 thousand cpm/g tissue (wet wei,85 ± 21 thousand cpm/g tissue (wet wei,effective,2,high,2,excreted through the kidneys as glucuronide or sulfate derivatives; also recorded: excreted through the kidneys as glucuronide derivatives,3,cannot be dissolved in aqueous solutions,2,effective,extremely rapid penetration into the nervous system,2,,
"COC(=O)[C@H]1OC(Oc2c(I)cc(Cl)c3cccnc23)[C@H](OC(C)=O)[C@@H](OC(C)=O)[C@@H]1OC(C)=O (stereo partly shown) [clioquinol glucuronide, methyl(5-chloro-7-iodo-quinolyl-2',3',4'-tri-O-acetyl-glycopyranosid)uronate]",,,,,,,,,,,,soluble in water,,,,,the same is observed for two resonances of the clioquinol glucuronide,hydrophobic interaction between clioquinol glucuronide and vitamin B12; also recorded: vitamin B12 binds to clioquinol glucuronide
